Results: US8119563B2, “N-substituted azacycles” (FMC Corporation, priority 2003, dated 2012)

Tested on: tobacco budworm (Heliothis virescens [Fabricius])
Experiment: surface-treated diet test, insecticidal activity against tobacco budworm
Type: in vivo
Conditions: 0.25 millimoles of candidate insecticide on the surface of the diet, second instar larvae, five-day exposure; for Percent Mortality: compared to total number of insects infested; for Percent Growth Inhibition: inhibition of insect weight relative to untreated controls
In short: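 Second-instar larvae (~5 mg) were held five days at 25° C and 60% RH on artificial diet whose surface carried dried compound (0.25 millimolar standard rate; DMSO serial dilutions for rate series, six replicates each). Readouts: mortality and weight inhibition relative to DMSO-treated controls.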

| Compound | Percent Mortality [%] | Percent Growth Inhibition [%] |
| --- | --- | --- |
| CC(=O)NCC1(C(c2ccc(C(F)(F)F)cc2)c2ccc(C(F)(F)F)cc2)CC[N+]([O-])(Cc2ccc(Oc3ncccn3)cc2)CC1 (stereo not drawn) [Compound 466] | 17 | 100 |
| [O-][N+]1(Cc2ccc(Oc3ccc(Cl)nn3)cc2)CCC(O)(C(c2ccc(C(F)(F)F)cc2)c2ccc(C(F)(F)F)cc2)CC1 (stereo not drawn) [Compound 384] | 100 | 100 |
| OC1(C(c2ccc(OC(F)(F)F)cc2)c2ccc(OC(F)(F)F)cc2)CCN(Cc2ccc(-c3ncccn3)cc2)CC1 [Compound 20] | 100 | 100 |
| OC(COc1cccc(Cl)c1)CN1CCC(O)(C(c2ccc(OC(F)(F)F)cc2)c2ccc(OC(F)(F)F)cc2)CC1 (stereo not drawn) [Compound 471] | 0 | 82 |
| OC1(C(c2ccc(C(F)(F)F)cc2)c2ccc(F)c(F)c2)CCN(Cc2ccc(Oc3ncccn3)cc2)CC1 (stereo not drawn) [Compound 17] | 83 | 100 |
| OC1(C(c2ccccc2F)c2ccccc2F)CCN(Cc2ccc(Oc3ncccn3)cc2)CC1 [Compound 434] | 0 | 56 |
| OC1(C(c2ccc(OC(F)(F)F)cc2)c2cccc(Cl)c2)CCN(Cc2ccc(Oc3ccccn3)cc2)CC1 (stereo not drawn) [Compound 439] | 100 | 100 |
| OC1(C(c2ccc(Cl)c(F)c2)c2ccc(Cl)c(F)c2)CCN(Cc2ccc(Oc3ncccn3)cc2)CC1 [Compound 4] | 100 | 100 |
| OC1(C(c2ccc(OC(F)F)cc2)c2ccc(OC(F)(F)F)cc2)CCN(Cc2ccc(Oc3ccccn3)cc2)CC1 (racemic) [Compound 269] | 100 | 100 |
| CON=C(Cl)c1ccc(C[N+]2([O-])CCC(O)(C(c3ccc(OC(F)(F)F)cc3)c3ccc(OC(F)(F)F)cc3)CC2)cc1 (stereo not drawn) [Compound 355] | 100 | 100 |
| O=Cc1ccc(C(c2ccc(OC(F)(F)F)cc2)C2(O)CCN(Cc3ccc(Oc4ccccn4)cc3)CC2)cc1 (stereo not drawn) [Compound 256] | 17 | 100 |
| [O-][N+]1(Cc2ccc(Oc3ccccn3)cc2)CCC(O)(C(c2ccc(Cl)cc2)c2ccc(OC(F)(F)F)cc2)CC1 (stereo not drawn) [Compound 391] | 100 | 100 |
| [O-][N+]1(Cc2ccc(OCc3ccccc3)cc2)CCC(O)(C(c2ccc(C(F)(F)F)cc2)c2ccc(C(F)(F)F)cc2)CC1 (stereo not drawn) [Compound 393] | 100 | 100 |
| Cc1ccc(C(c2ccc(OC(F)(F)F)cc2)C2(O)CCN(Cc3ccc(Oc4ccccn4)cc3)CC2)cc1 (stereo not drawn) [Compound 262] | 100 | 100 |
| OC1(C(c2ccc(C(F)(F)F)cc2)c2ccc(C(F)(F)F)cc2)CCN(Cc2ccc(OCc3ccccc3)cc2)CC1 [Compound 316] | 67 | 100 |
| COc1ccc(Oc2ccc(CN3CCC(O)(C(c4ccc(OC(F)(F)F)cc4)c4ccc(OC(F)(F)F)cc4)CC3)cc2)nn1 [Compound 274] | 100 | 100 |
| CCON=Cc1ccc(C[N+]2(O)CCC(O)(C(c3ccc(OC(F)(F)F)cc3)c3ccc(OC(F)(F)F)cc3)CC2)cc1.O=C(O)CC(O)(CC(=O)O)C(=O)[O-] (stereo not drawn) [Compound 494] | 100 | 100 |
| [O-][N+]1(Cc2ccc(Oc3ncccc3Cl)cc2)CCC(O)(C(c2ccc(OC(F)(F)F)cc2)c2ccc(OC(F)(F)F)cc2)CC1 (stereo not drawn) [Compound 399] | 100 | 100 |
| CCOC(=O)COc1ccc(C[N+]2([O-])CCC(O)(C(c3ccc(OC(F)(F)F)cc3)c3ccc(OC(F)(F)F)cc3)CC2)cc1 (stereo not drawn) [Compound 357] | 0 | 100 |
| NCC1(C(c2ccc(C(F)(F)F)cc2)c2ccc(C(F)(F)F)cc2)CCN(Cc2ccc(OCC3CC3)cc2)CC1 [Compound 450] | 50 | 100 |
| CC1(C)[C@@H]2CCC1(CS(=O)(=O)[O-])C(=O)C2.CCON=Cc1ccc(C[N+]2(O)CCC(O)(C(c3ccc(OC(F)(F)F)cc3)c3ccc(OC(F)(F)F)cc3)CC2)cc1 (stereo not drawn) [Compound 490] | 100 | 100 |
| [O-][N+]1(CCOc2ccc(Cl)cc2)CCC(O)(C(c2ccc(OC(F)(F)F)cc2)c2ccc(OC(F)(F)F)cc2)CC1 (stereo not drawn) [Compound 478] | 100 | 100 |
| OC1(C(c2ccc(OC(F)(F)F)cc2)c2ccc(OC(F)(F)F)cc2)CCN(Cc2ccc(C=NOCC(F)(F)F)cc2)CC1 [Compound 301] | 100 | 100 |

| Compound | Percent Mortality [%] | Percent Growth Inhibition [%] |
| --- | --- | --- |
| CC(O)c1ccc(C(c2ccc(OC(F)(F)F)cc2)C2(O)CCN(Cc3ccc(Oc4ccccn4)cc3)CC2)cc1 (mixture of isomers) [Compound 287] | 100 | 100 |
| CCn1nnc(-c2ccc(CN3CCC(O)(C(c4ccc(OC(F)(F)F)cc4)c4ccc(OC(F)(F)F)cc4)CC3)cc2)n1 [Compound 25] | 100 | 100 |
| Cc1cccnc1Oc1ccc(C[N+]2([O-])CCC(O)(C(c3ccc(OC(F)(F)F)cc3)c3ccc(OC(F)(F)F)cc3)CC2)cc1 (stereo not drawn) [Compound 349] | 100 | 100 |
| CCCCC(CC)C(=O)[O-].CCON=Cc1ccc(C[N+]2(O)CCC(O)(C(c3ccc(OC(F)(F)F)cc3)c3ccc(OC(F)(F)F)cc3)CC2)cc1 (stereo not drawn) [Compound 486] | 100 | 100 |
| CCCOc1ccc(C[N+]2([O-])CCC(O)(C(O)(c3ccc(OC(F)(F)F)cc3)c3ccc(OC(F)(F)F)cc3)CC2)cc1 (stereo not drawn) [Compound 123] | 100 | 100 |
| CCOC(C)C(=O)[O-].CCON=Cc1ccc(C[N+]2(O)CCC(O)(C(c3ccc(OC(F)(F)F)cc3)c3ccc(OC(F)(F)F)cc3)CC2)cc1 (stereo not drawn) [Compound 484] | 100 | 100 |
| OC1(C(c2ccc(OC(F)(F)F)cc2)c2ccc(C3OCCO3)cc2)CCN(Cc2ccc(Oc3ccccn3)cc2)CC1 (racemic) [Compound 295] | 100 | 100 |
| N#Cc1ccc(Oc2ccc(CN3CCC(O)(C(c4ccc(OC(F)(F)F)cc4)c4ccc(OC(F)(F)F)cc4)CC3)cc2)nc1 [Compound 283] | 100 | 100 |
| CCn1nnc(-c2ccc(C[N+]3([O-])CCC(O)(C(O)(c4ccc(OC(F)(F)F)cc4)c4ccc(OC(F)(F)F)cc4)CC3)cc2)n1 (stereo not drawn) [Compound 426] | 100 | 100 |
| CCCOc1ccc(CN2CCC(O)(C(O)(c3ccc(OC(F)(F)F)cc3)c3ccc(OC(F)(F)F)cc3)CC2)cc1 [Compound 91] | 100 | 100 |
| Cc1cccc(Oc2ccc(CN3CCC(O)(C(c4ccc(OC(F)(F)F)cc4)c4ccc(OC(F)(F)F)cc4)CC3)cc2)n1 [Compound 276] | 100 | 100 |
| [O-][N+]1(Cc2ccc(C3OCCCO3)cc2)CCC(O)(C(c2ccc(OC(F)(F)F)cc2)c2ccc(OC(F)(F)F)cc2)CC1 (stereo not drawn) [Compound 370] | 100 | 100 |
| [O-][N+]1(Cc2ccc(OCc3ccccc3)cc2)CCC(O)(C(c2ccc(OC(F)(F)F)cc2)c2ccc(OC(F)(F)F)cc2)CC1 (stereo not drawn) [Compound 381] | 100 | 100 |
| O=C([O-])CCCCCC(=O)O.OC1(C(c2ccc(OC(F)(F)F)cc2)c2ccc(OC(F)(F)F)cc2)CC[N+](O)(Cc2ccc(Oc3ccccn3)cc2)CC1 (stereo not drawn) [Compound 514] | 100 | 100 |
| [O-][N+]1(CCc2ccc(Cl)cc2)CCC(O)(C(c2ccc(OC(F)(F)F)cc2)c2ccc(OC(F)(F)F)cc2)CC1 (stereo not drawn) [Compound 479] | 100 | 100 |
| CCCNC(=O)Oc1ccc(CN2CCC(O)(C(c3ccc(OC(F)(F)F)cc3)c3ccc(OC(F)(F)F)cc3)CC2)cc1 [Compound 300] | 100 | 100 |
| CCS(=O)(=O)[O-].OC1(C(c2ccc(OC(F)(F)F)cc2)c2ccc(OC(F)(F)F)cc2)CC[N+](O)(Cc2ccc(Oc3ccccn3)cc2)CC1 (stereo not drawn) [Compound 506] | 100 | 100 |
| CC(C)Oc1ccc(C[N+]2([O-])CCC(O)(C(c3ccc(C(F)(F)F)cc3)c3ccc(C(F)(F)F)cc3)CC2)cc1 (stereo not drawn) [Compound 380] | 100 | 100 |
| OC1(C(c2ccc(C(F)(F)F)cc2)c2cccc(F)c2)CCN(Cc2ccc(Oc3ncccn3)cc2)CC1 (stereo not drawn) [Compound 12] | 0 | 100 |
| CCn1nnc(-c2ccc(CN3CCC(O)(C(c4ccc(C(F)(F)F)cc4)c4ccc(C(F)(F)F)cc4)CC3)cc2)n1 [Compound 27] | 100 | 100 |
| CC1(C)C(C=C(Cl)C(F)(F)F)C1C(=O)[O-].OC1(C(c2ccc(C(F)(F)F)cc2)c2ccc(C(F)(F)F)cc2)CC[N+](O)(Cc2ccc(Oc3ccc(Cl)nn3)cc2)CC1 (mixture of isomers) [Compound 519] | 100 | 100 |
| O=C(O)CC(O)(CC(=O)O)C(=O)[O-].OC1(C(c2ccc(OC(F)(F)F)cc2)c2ccc(OC(F)(F)F)cc2)CC[N+](O)(Cc2ccc(Oc3ccccn3)cc2)CC1 (stereo not drawn) [Compound 504] | 100 | 100 |
